Data from EP4567037A1, “USE OF PYRROLOPYRIMIDINE COMPOUND IN TREATMENT OF ACUTE GRAFT VERSUS HOST DISEASE” (Chia Tai Tianqing Pharmaceutical Group Co., Ltd., priority 2022, dated 2024).

System: glucocorticoid-resistant acute graft-versus-host disease
Test: Clinical study of tablets of the compound of formula II in subjects with glucocorticoid-resistant acute graft-versus-host disease
Type: in vivo
Experimental: This study was conducted to evaluate the safety and preliminary efficacy of the compound of formula II for treating acute graft-versus-host disease in a subject resistant to glucocorticoid.
Administration method: orally administered twice a day at fasting, at a dose of 10 mg or 15 mg each time, with 28 consecutive days of administration as one treatment cycle.
Drug: the compound of formula I in 5 mg or 20 mg tablets, with the compound of formula I being shown as its stereoisomer, a compound of formula II: [drawing 4]
• 1) Aged 12-75 years (inclusive), with no gender restriction; • 2) Previously received allogeneic hematopoietic stem cell transplantation (including non-myeloablative, myeloablative, and reduced-intensity conditioning transplantation of bone marrow, peripheral blood stem cells, and umbilical cord blood); • 3) Clinically diagnosed with aGVHD of grade II to grade IV according to MAGIC guidelines; • Resistance to glucocorticoid therapy *, defined as resistance to high-dose systemic glucocorticoid (methylprednisolone at a dose of 1-2 mg/kg/day or prednisone at an equivalent dose of 1.25-2.5 mg/kg/day), taken alone or taken in combination with a calcineurin inhibitor (CNI); • * Subjects meeting any one of the following conditions can be defined as resistant to conventional glucocorticoid therapy, i.e., therapy with methylprednisolone at a dose of ≥ 1 mg/kg/day or therapy with another type of glucocorticoid at an equivalent dose: (1) progression of aGVHD after the glucocorticoid therapy has been administered for 3 days, (2) no amelioration in aGVHD after the glucocorticoid therapy has been administered for 5 days, and (3) incomplete response of aGVHD after the glucocorticoid therapy has been administered for 14 days; • 4) Within 48 h before the start of therapy, neutrophil count (ANC) > 1 × 10^9/L, and platelet count (PLT) ≥ 20×10^9/L; and • 5) Subjects with voluntary participation, signed informed consent, and good compliance.
During the study, the investigator scored aGVHD treatment responses according to Harris 2016 response evaluation criteria.
The evaluation index may be selected from the group consisting of: • Objective response rate (ORR): refers to the percentage of subjects in complete response (CR) or very good partial response (VGPR) or partial response (PR). • Complete response (CR) rate: refers to the percentage of subjects in complete response (CR). • Overall survival (OS): refers to the time from the start of the first administration to death due to any cause. • Duration of response (DOR): for subjects in complete response (CR) or very good partial response (VGPR) or partial response (PR) on day 28, DOR is defined as the time from the date of the first recorded response to the date of the first recorded disease progression or the start of any new systemic therapy for aGVHD. • Event-free survival (EFS): defined as the time from the date of the first administration to the date of relapse/progression of hematologic disease, transplantation failure, or death due to any cause. • Non-relapse mortality (NRM): defined as the time from the date of the first administration to the date of death not related to relapse/progression of hematologic disease. • Incidence of malignancy relapse/progression (MR): defined as the time from the date of the first administration to the date of relapse/progression of hematologic disease.
Twelve evaluable subjects orally took tablets of the compound of formula II twice a day at fasting, at a dose of 10 mg each time, with 28 days as one administration cycle. The ORR of the 12 subjects on D28 was 83.3% (10/12), with 8 achieving CR and 2 achieving VGPR (very good partial response). […] Evaluation of efficacy in patients

[1] = D28, of 12 evaluable subjects, 10 mg twice a day

N#CC[C@H](C1CCCC1)n1cc(-c2ncnc3[nH]ccc23)c(N)n1 [compound of formula II]
Tolerability and safety (10 mg twice a day, oral tablets, overall adverse events being controllable): good tolerability and safety
ORR on D28 (12 evaluable subjects, oral, twice a day at fasting, 10 mg each time, 28-day cycle, Harris 2016 response criteria): 83.3%
ORR on D28 (responders/evaluable subjects) (12 evaluable subjects, oral, twice a day, 10 mg each time, 28-day cycle): 10/12
Number of subjects achieving CR [1]: 8
Number of subjects achieving VGPR (very good partial response) [1]: 2
Number of patients achieving ORR on D28 (subgroup aGVHD Grade II (6 patients)): 6
Number of patients achieving ORR on D28 (subgroup aGVHD Grade III (6 patients)): 4
Number of patients achieving ORR on D28 (subgroup organ affected by aGVHD: Liver (5 patients)): 3
Number of patients achieving ORR on D28 (subgroup organ affected by aGVHD: Lower digestive tract (5 patients)): 4
Number of patients achieving ORR on D28 (subgroup organ affected by aGVHD: Skin (8 patients)): 8
Number of patients achieving ORR on D28 (subgroup organ affected by aGVHD: Upper digestive tract (2 patients)): 2
Number of patients achieving ORR on D28 (subgroup previous therapy Hormone + CD25 monoclonal antibody (1 patient)): 0
Number of patients achieving ORR on D28 (subgroup previous therapy Hormone + CNI + MMF (6 patients)): 5
Number of patients achieving ORR on D28 (subgroup previous therapy Hormone + MTX + CNI + MMF (1 patient)): 1
Number of patients achieving ORR on D28 (subgroup previous therapy Hormone ± CNI (4 patients)): 4
